Data reported in paper PMC8476755 (Frontiers in Chemistry, 2021).

Target: T1, GAT1 (Homo sapiens, UniProt P30531)
T1 construct: expressed in transfected cells
Assay: FLIPR membrane potential (FMP) assay, CHO cells stably expressing GAT1
Assay type: cell-based
Settings: n = 2
Source text: In order to scrutinize the mode of inhibition of bicyclo-GABA and the N-methylated derivative 2, the ability to be translocated by BGT1 was investigated in the functional FMP assay able to discriminate between substrates and inhibitors, as previously described ([Al-Khawaja et al., 2014]).
The tsA201 cell line (a transformed HEK293 cell line), the Flp-In CHO cell lines stably expressing human (h) GATs and the HEK293 cell line stably expressing human α1β2γ2 GABAA receptors have been described previously and were cultured accordingly ([Al-Khawaja et al., 2014]; [Falk-Petersen et al., 2020]). […]
The FMP assay performed on human α1β2γ2 GABAA receptors in HEK293 cells was performed as described and data analyzed accordingly ([Falk-Petersen et al., 2020]). […] Test compound solutions were prepared at 4x concentration in assay buffer and added to ligand plates pre-heated at 37°C for 10–15 min in the FLEXstation3 plate reader (Molecular Devices). After incubation, 33.3 µL test compound solution (4x) was automatically transferred to each well in the cell plate and the signal was measured for 90 s by measuring emission at 560 nm caused by excitation at 530 nm. […] Data obtained in the FMP assay are given as relative changes in fluorescence units (ΔRFU) by subtracting the average of the baseline fluorescence signal from the peak fluorescence signal after compound addition. […]

T1 sequence (P30531 whole entry): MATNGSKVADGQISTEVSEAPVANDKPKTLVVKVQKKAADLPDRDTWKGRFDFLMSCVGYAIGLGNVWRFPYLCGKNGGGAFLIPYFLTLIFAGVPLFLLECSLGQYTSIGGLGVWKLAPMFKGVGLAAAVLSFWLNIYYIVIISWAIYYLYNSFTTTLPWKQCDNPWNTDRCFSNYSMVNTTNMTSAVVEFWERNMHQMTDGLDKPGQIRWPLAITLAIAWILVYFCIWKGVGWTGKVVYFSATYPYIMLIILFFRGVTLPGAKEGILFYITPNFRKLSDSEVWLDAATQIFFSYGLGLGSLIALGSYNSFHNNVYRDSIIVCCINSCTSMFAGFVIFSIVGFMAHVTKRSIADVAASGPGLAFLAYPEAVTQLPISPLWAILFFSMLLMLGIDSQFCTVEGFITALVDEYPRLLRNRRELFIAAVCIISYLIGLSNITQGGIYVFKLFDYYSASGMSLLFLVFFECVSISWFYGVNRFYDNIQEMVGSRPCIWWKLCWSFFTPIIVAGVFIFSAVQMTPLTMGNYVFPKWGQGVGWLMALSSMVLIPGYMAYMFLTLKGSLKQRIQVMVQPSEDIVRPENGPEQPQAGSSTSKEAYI

N[C@@]12CC[C@H](C(=O)O)[C@@H]1C2 [bicyclo-GABA, (1S,2S,5R)-5-aminobicyclo[3.1.0]hexane-2-carboxylic acid]
Inhibitory effect at GAT1 (in the presence of GABA EC50 concentration (10 µM)): specific to BGT1 | Substrate activity at GAT1 (tested as substrate, without GABA): lack of activity
